Measured values: ChEMBL document CHEMBL5543173, “Discovery of a New Anti-Inflammatory Agent from Anemoside B4 Derivatives and Its Therapeutic Effect on Colitis by Targeting Pyruvate Carboxylase” (J Med Chem, 2024)
One block for each compound: values may come before it. Active and inactive are the calls of the source. No cut-off for these calls is given here.

Key:
[1] = molecular target: T1, Pyruvate carboxylase, mitochondrial (Homo sapiens, UniProt P11498); assay: Inhibition of pyruvate carboxylase (unknown origin) by NADH-malate dehydrogenase based spectrophotometry
T1 sequence (P11498 whole entry): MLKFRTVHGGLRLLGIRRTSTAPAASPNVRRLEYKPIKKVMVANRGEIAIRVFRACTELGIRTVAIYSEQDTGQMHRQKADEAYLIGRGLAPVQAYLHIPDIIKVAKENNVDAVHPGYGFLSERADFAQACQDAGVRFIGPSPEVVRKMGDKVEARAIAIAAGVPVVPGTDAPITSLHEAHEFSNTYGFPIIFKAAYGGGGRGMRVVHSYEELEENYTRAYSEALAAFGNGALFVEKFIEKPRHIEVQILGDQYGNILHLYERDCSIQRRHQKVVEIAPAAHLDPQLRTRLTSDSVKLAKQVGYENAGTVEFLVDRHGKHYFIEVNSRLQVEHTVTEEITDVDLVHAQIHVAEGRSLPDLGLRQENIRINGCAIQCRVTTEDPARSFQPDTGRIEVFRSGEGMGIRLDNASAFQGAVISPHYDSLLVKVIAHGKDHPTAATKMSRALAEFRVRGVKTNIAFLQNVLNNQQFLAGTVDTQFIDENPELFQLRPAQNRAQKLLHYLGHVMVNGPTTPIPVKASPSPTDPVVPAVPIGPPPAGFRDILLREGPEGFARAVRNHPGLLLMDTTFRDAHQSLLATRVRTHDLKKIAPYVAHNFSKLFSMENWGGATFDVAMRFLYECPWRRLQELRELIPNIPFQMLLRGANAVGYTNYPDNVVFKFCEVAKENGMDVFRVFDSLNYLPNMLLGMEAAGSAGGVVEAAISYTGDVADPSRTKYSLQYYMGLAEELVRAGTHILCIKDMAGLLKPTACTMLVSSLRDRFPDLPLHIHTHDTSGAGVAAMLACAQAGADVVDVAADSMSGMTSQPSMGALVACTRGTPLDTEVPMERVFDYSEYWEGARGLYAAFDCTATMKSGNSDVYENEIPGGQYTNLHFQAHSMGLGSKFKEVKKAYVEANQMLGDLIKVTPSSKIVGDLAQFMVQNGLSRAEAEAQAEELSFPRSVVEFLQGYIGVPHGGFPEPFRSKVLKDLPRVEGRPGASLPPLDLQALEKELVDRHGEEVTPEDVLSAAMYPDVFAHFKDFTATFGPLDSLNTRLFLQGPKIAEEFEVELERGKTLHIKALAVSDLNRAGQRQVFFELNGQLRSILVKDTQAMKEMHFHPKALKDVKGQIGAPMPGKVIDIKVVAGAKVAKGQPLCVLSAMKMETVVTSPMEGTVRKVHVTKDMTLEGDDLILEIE

THP-1 [2] = assay: cells; details: Homo sapiens, THP-1, 24 h
Mus musculus [3] = assay: Anti-colitis activity in DSS-induced colitis mouse model at 20 to 40 mg/kg; assay type: functional, organism-based; details: dose 20-40 mg/kg
Mus musculus [4] = assay: Anti-colitis activity in ICR mouse model assessed as reversal of DSS-induced splenomegaly at 400 mg/kg, IG treated for 9 days consecutively; assay type: functional, organism-based; details: time 9.0 day
Mus musculus [5] = assay: Anti-colitis activity in ICR mouse model assessed as reversal of DSS-induced spleen weight at 400 mg/kg, IG treated for 9 days consecutively; assay type: functional, organism-based; details: time 9.0 day
Mus musculus [6] = assay: Anti-colitis activity in ICR mouse model of DSS-induced colitis assessed as decrease in DAI score at 400 mg/kg, IG treated for 9 days consecutively; assay type: functional, organism-based; details: time 9.0 day
Mus musculus [7] = assay: Anti-colitis activity in ICR mouse model assessed as decrease in DSS-induced body weight loss at 400 mg/kg, IG treated for 9 days consecutively; assay type: functional, organism-based; details: time 9.0 day
Mus musculus [8] = assay: Anti-colitis activity in ICR mouse model assessed as reversal of DSS-induced colon shortening administered intragastrically for 9 days consecutively; assay type: functional, organism-based; details: route ig, time 9.0 day
[9] = AUC (0 to t) in colon of ICR mouse at 15 mg/kg, IG measured for 12 hrs by LC-MS/MS analysis; assay type: ADME, organism-based; details: po
[10] = AUC (0 to t) in ICR mouse at 15 mg/kg, IG measured for 12 hrs by LC-MS/MS analysis; assay type: ADME, organism-based; details: in vivo, po
[11] = Half life in colon of ICR mouse at 15 mg/kg, IG measured for 12 hrs by LC-MS/MS analysis; assay type: ADME, organism-based; details: po
[12] = Half life in ICR mouse at 15 mg/kg, IG measured for 12 hrs by LC-MS/MS analysis; assay type: ADME, organism-based; details: in vivo, po, 15 mg/kg, 12 h
[13] = MRT (0 to t) in colon of ICR mouse at 15 mg/kg, IG measured for 12 hrs by LC-MS/MS analysis; assay type: ADME, organism-based; details: po
[14] = Cmax in ICR mouse at 15 mg/kg, IG measured for 12 hrs by LC-MS/MS analysis; assay type: ADME, organism-based; details: in vivo, po
[15] = Tmax in ICR mouse at 15 mg/kg, IG measured for 12 hrs by LC-MS/MS analysis; assay type: ADME, organism-based; details: in vivo, po
[16] = Cmax in colon of ICR mouse at 15 mg/kg, IG measured for 12 hrs by LC-MS/MS analysis; assay type: ADME, organism-based; details: po
[17] = MRT (0 to t) in ICR mouse at 15 mg/kg, IG measured for 12 hrs by LC-MS/MS analysis; assay type: ADME, organism-based; details: in vivo, po
[18] = Tmax in colon of ICR mouse at 15 mg/kg, IG measured for 12 hrs by LC-MS/MS analysis; assay type: ADME, organism-based; details: po
THP-1 [19] = assay: Anti-inflammatory activity in LPS-treated human THP-1 cells assessed as decrease in phosphorylated I-kappaB-alpha level at 10 uM pretreated for 1 hr followed by LPS treatment for 6 hrs by Western blot analysis; assay type: functional, cell-based; details: time 7.0 hrs

SMILES: C=C(C)[C@@H]1CC[C@]2(C(=O)O)CC[C@]3(C)[C@H](CC[C@@H]4[C@@]5(C)CC[C@H](O[C@@H]6OC[C@H](O)[C@H](O)[C@H]6O[C@@H]6O[C@@H](C)[C@H](O)[C@@H](O)[C@H]6O)[C@@](C)(CO)[C@@H]5CC[C@]43C)[C@@H]12
IC50 [1]: > 10 µM | IC50 (THP-1 [2]): ≥ 80 µM | Activity (Mus musculus [3]): inactive

IC50 [1]: > 1 µM | IC50 (THP-1 [2]): ≥ 80 µM
SMILES: C=C(C)[C@@H]1CC[C@]2(C(=O)NCCCc3ccc(Cl)cc3)CC[C@]3(C)[C@H](CC[C@@H]4[C@@]5(C)CC[C@H](O[C@@H]6OC[C@H](O)[C@H](O)[C@H]6O[C@@H]6O[C@@H](C)[C@H](O)[C@@H](O)[C@H]6O)[C@@](C)(CO)[C@@H]5CC[C@]43C)[C@@H]12

IC50 [1]: > 1 µM | IC50 (THP-1 [2]): ≥ 80 µM
SMILES: C[C@@H]1C[C@H]2[C@@H]3CCC4=CC(=O)C=C[C@]4(C)[C@@]3(F)[C@@H](O)C[C@]2(C)[C@@]1(O)C(=O)CO [DEXAMETHASONE]

IC50 [1]: > 1 µM | IC50 (THP-1 [2]): 55.7 µM
SMILES: C=C(C)[C@@H]1CC[C@]2(C(=O)NC(C)C)CC[C@]3(C)[C@H](CC[C@@H]4[C@@]5(C)CC[C@H](O[C@@H]6OC[C@H](O)[C@H](O)[C@H]6O[C@@H]6O[C@@H](C)[C@H](O)[C@@H](O)[C@H]6O)[C@@](C)(CO)[C@@H]5CC[C@]43C)[C@@H]12

SMILES: Nc1ccc(O)c(C(=O)O)c1
Activity (Mus musculus [4]): Active | Activity (Mus musculus [5]): Active | Activity (Mus musculus [6]): Active | Activity (Mus musculus [7]): Active | Activity (Mus musculus [8]): Dose-Dependent Effect

SMILES: C=C(C)[C@@H]1CC[C@]2(C(=O)O[C@@H]3O[C@H](CO[C@@H]4O[C@H](CO)[C@@H](O[C@@H]5O[C@@H](C)[C@H](O)[C@@H](O)[C@H]5O)[C@H](O)[C@H]4O)[C@@H](O)[C@H](O)[C@H]3O)CC[C@]3(C)[C@H](CC[C@@H]4[C@@]5(C)CC[C@H](O[C@@H]6OC[C@H](O)[C@H](O)[C@H]6O[C@@H]6O[C@@H](C)[C@H](O)[C@@H](O)[C@H]6O)[C@@](C)(CO)[C@@H]5CC[C@]43C)[C@@H]12
IC50 (THP-1 [2]): ≥ 80 µM | AUC(0-t) at 12 h [9]: 30.2 ng·h/mL | AUCt [10]: 2.46 ng·h/mL | half-life [11]: 4.65 h | t1/2 [12]: 4.74 h | MRT last at 12 h [13]: 4.38 h | Cmax [14]: 0.58 ng/mL | Tmax [15]: 0.46 h | Cmax [16]: 7.12 ng/mL | MRT last at 12 h [17]: 5.13 h | Tmax [18]: 1.92 h

IC50 [1]: > 1 µM | IC50 (THP-1 [2]): ≥ 80 µM
SMILES: C=C(C)[C@@H]1CC[C@]2(C(=O)NCCCC(=O)OCC)CC[C@]3(C)[C@H](CC[C@@H]4[C@@]5(C)CC[C@H](O[C@@H]6OC[C@H](O)[C@H](O)[C@H]6O[C@@H]6O[C@@H](C)[C@H](O)[C@@H](O)[C@H]6O)[C@@](C)(CO)[C@@H]5CC[C@]43C)[C@@H]12

IC50 (THP-1 [2]): ≥ 80 µM
SMILES: C=C(C)[C@@H]1CC[C@]2(C(=O)NCCCNC(=O)OC(C)(C)C)CC[C@]3(C)[C@H](CC[C@@H]4[C@@]5(C)CC[C@H](O[C@@H]6OC[C@H](O)[C@H](O)[C@H]6O[C@@H]6O[C@@H](C)[C@H](O)[C@@H](O)[C@H]6O)[C@@](C)(CO)[C@@H]5CC[C@]43C)[C@@H]12
Activity (THP-1 [19]): Active

IC50 [1]: > 1 µM | IC50 (THP-1 [2]): ≥ 80 µM
SMILES: C=C(C)[C@@H]1CC[C@]2(C(=O)NCCCCCCCC(=O)OCC)CC[C@]3(C)[C@H](CC[C@@H]4[C@@]5(C)CC[C@H](O[C@@H]6OC[C@H](O)[C@H](O)[C@H]6O[C@@H]6O[C@@H](C)[C@H](O)[C@@H](O)[C@H]6O)[C@@](C)(CO)[C@@H]5CC[C@]43C)[C@@H]12

IC50 [1]: > 1 µM | IC50 (THP-1 [2]): ≥ 80 µM
SMILES: C=C(C)[C@@H]1CC[C@]2(C(=O)NCCCc3ccccc3)CC[C@]3(C)[C@H](CC[C@@H]4[C@@]5(C)CC[C@H](O[C@@H]6OC[C@H](O)[C@H](O)[C@H]6O[C@@H]6O[C@@H](C)[C@H](O)[C@@H](O)[C@H]6O)[C@@](C)(CO)[C@@H]5CC[C@]43C)[C@@H]12
